What follows are compounds tested against T1, human PAR4 (Homo sapiens, UniProt Q96RI0) (assay: PAR4 FLIPR assay: antagonism of agonist-peptide-induced calcium mobilization in PAR4-expressing HEK293 cells). Details: H-Ala-Phe(4-F)-[…]NH2-induced intracellular calcium mobilization, 11-point curves.
T1 construct: expressed in transfected cells; host or cells: HEK293 PAR4 Clone 1.2A (BMS Arctic ID 383940)
T1 sequence (Q96RI0 18-385): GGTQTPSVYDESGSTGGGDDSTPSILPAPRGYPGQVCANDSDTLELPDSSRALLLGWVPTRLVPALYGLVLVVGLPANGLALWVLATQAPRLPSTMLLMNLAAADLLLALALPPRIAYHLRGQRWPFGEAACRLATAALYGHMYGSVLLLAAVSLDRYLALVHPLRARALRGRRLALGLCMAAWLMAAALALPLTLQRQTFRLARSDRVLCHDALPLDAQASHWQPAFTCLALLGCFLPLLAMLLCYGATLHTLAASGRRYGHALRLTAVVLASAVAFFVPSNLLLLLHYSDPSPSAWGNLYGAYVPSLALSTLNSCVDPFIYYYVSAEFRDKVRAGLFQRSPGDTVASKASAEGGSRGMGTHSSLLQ
Type: cell-based

Compared with `COc1cnc2c(-c3nc4cc(F)c(O[C@@H](C)[C@@H](C)OC(=O)Nc5cnc(CO)nc5)cc4s3)cc(Cl)cc2c1` [Example 539, (2R,3S)-3-((2-(6-chloro-3-methoxyquinolin-8-yl)-5-fluorobenzo[d]thiazol-6-yl)oxy)butan-2-yl (2-(hydroxymethyl)pyrimidin-5-yl)carbamate], `COc1cnc2c(-c3nc4cc(F)c(O[C@@H](C)[C@@H](C)OC(=O)Nc5cnc(OC[C@@H](C)O)nc5)cc4s3)cc(Cl)cc2c1` [Example 540, (2R,3S)-3-((2-(6-chloro-3-methoxyquinolin-8-yl)-5-fluorobenzo[d]thiazol-6-yl)oxy)butan-2-yl (2-((R)-2-hydroxypropoxy)pyrimidin-5-yl)carbamate] is 2.2-fold lower in IC50: 6.5 nM for the first, 3 nM for the second.

Compared with `COc1cnc2c(-c3nc4cc(F)c(O[C@@H](C)[C@@H](C)OC(=O)Nc5cnc(OC[C@H](C)O)nc5)cc4s3)cc(Cl)cc2c1` [Example 541, (2R,3S)-3-((2-(6-chloro-3-methoxyquinolin-8-yl)-5-fluorobenzo[d]thiazol-6-yl)oxy)butan-2-yl (2-((S)-2-hydroxypropoxy)pyrimidin-5-yl)carbamate], `COc1cnc2c(-c3nc4cc(F)c(O[C@@H](C)[C@@H](C)OC(=O)Nc5cnc(OCCO)nc5)cc4s3)cc(C)cc2n1` [Example 556, (2R,3S)-3-((5-fluoro-2-(2-methoxy-7-methylquinoxalin-5-yl)benzo[d]thiazol-6-yl)oxy)butan-2-yl (2-(2-hydroxyethoxy)pyrimidin-5-yl)carbamate] is 4.9-fold lower in IC50: 3.4 nM for the first, 0.7 nM for the second.

`COc1cnc2c(-c3nc4c(Cl)c(F)c(OC[C@@H](C)OC(=O)Nc5ccc(CCO)nc5)cc4s3)cc(C)cc2n1` [Example 542, (R)-1-((4-chloro-5-fluoro-2-(2-methoxy-7-methylquinoxalin-5-yl)benzo[d]thiazol-6-yl)oxy)propan-2-yl (6-(2-hydroxyethyl)pyridin-3-yl)carbamate] and `COc1cnc2c(-c3nc4cc(F)c(OC[C@@H](C)OC(=O)Nc5ccc(CCO)nc5)cc4s3)cc(C)cc2n1` [Example 543, (R)-1-((5-fluoro-2-(2-methoxy-7-methylquinoxalin-5-yl)benzo[d]thiazol-6-yl)oxy)propan-2-yl (6-(2-hydroxyethyl)pyridin-3-yl)carbamate] are within 1.5-fold of each other in IC50: 1.6 nM for the first, 1.3 nM for the second.

Compared with `COc1cnc2c(-c3nc4cc(F)c(OC[C@@H](C)OC(=O)Nc5cnc(C)c(CO)c5)cc4s3)cc(C)cc2n1` [Example 544, (R)-1-((5-fluoro-2-(2-methoxy-7-methylquinoxalin-5-yl)benzo[d]thiazol-6-yl)oxy)propan-2-yl (5-(hydroxymethyl)-6-methylpyridin-3-yl)carbamate], `COc1cnc2c(-c3nc4cc(F)c(OC[C@@H](C)OC(=O)Nc5ccc(CO)nc5)cc4s3)cc(C)cc2n1` [Example 546, (R)-1-((5-fluoro-2-(2-methoxy-7-methylquinoxalin-5-yl)benzo[d]thiazol-6-yl)oxy)propan-2-yl (6-(hydroxymethyl)pyridin-3-yl)carbamate] is 2.4-fold lower in IC50: 34 nM for the first, 14 nM for the second. The second is the more potent here.

Compared with `COc1cnc2c(-c3nc4cc(F)c(OC[C@@H](C)OC(=O)Nc5ccnc(CCO)c5)cc4s3)cc(C)cc2n1` [Example 545, (R)-1-((5-fluoro-2-(2-methoxy-7-methylquinoxalin-5-yl)benzo[d]thiazol-6-yl)oxy)propan-2-yl (2-(2-hydroxyethyl)pyridin-4-yl)carbamate], `COc1cnc2c(-c3nc4cc(F)c(OC[C@@H](C)OC(=O)Nc5ccnc(OCCO)c5)cc4s3)cc(C)cc2n1` [Example 552, (R)-1-((5-fluoro-2-(2-methoxy-7-methylquinoxalin-5-yl)benzo[d]thiazol-6-yl)oxy)propan-2-yl (2-(2-hydroxyethoxy)pyridin-4-yl)carbamate] is 2.1-fold lower in IC50: 1.5 nM for the first, 0.7 nM for the second.

First: COc1cnc2c(-c3nc4cc(F)c(O[C@@H](C)[C@@H](C)OC(=O)Nc5ccnc(CCO)c5)cc4s3)cc(C)cc2n1 [Example 547, (2R,3S)-3-((5-fluoro-2-(2-methoxy-7-methylquinoxalin-5-yl)benzo[d]thiazol-6-yl)oxy)butan-2-yl (2-(2-hydroxyethyl)pyridin-4-yl)carbamate]
Second: COc1cnc2c(-c3nc4cc(F)c(O[C@@H](C)[C@@H](C)OC(=O)Nc5ccnc(CC(C)(C)O)c5)cc4s3)cc(C)cc2n1 [Example 561, (2R,3S)-3-((5-fluoro-2-(2-methoxy-7-methylquinoxalin-5-yl)benzo[d]thiazol-6-yl)oxy)butan-2-yl (2-(2-hydroxy-2-methylpropyl)pyridin-4-yl)carbamate]
The IC50 of the first is 10-fold lower: 5.2 nM for the first, 53 nM for the second.

Going from `COc1cnc2c(-c3nc4cc(F)c(O[C@@H](C)[C@@H](C)OC(=O)Nc5ccnc(O[C@H](C)CO)c5)cc4s3)cc(C)cc2n1` [Example 549, (2R,3S)-3-((5-fluoro-2-(2-methoxy-7-methylquinoxalin-5-yl)benzo[d]thiazol-6-yl)oxy)butan-2-yl (2-(((R)-1-hydroxypropan-2-yl)oxy)pyridin-4-yl)carbamate] to `COc1cnc2c(-c3nc4cc(F)c(O[C@@H](C)[C@@H](C)OC(=O)Nc5ccnc(OC[C@@H](C)O)c5)cc4s3)cc(C)cc2n1` [Example 550, (2R,3S)-3-((5-fluoro-2-(2-methoxy-7-methylquinoxalin-5-yl)benzo[d]thiazol-6-yl)oxy)butan-2-yl (2-((R)-2-hydroxypropoxy)pyridin-4-yl)carbamate], the IC50 falls from 1 nM to 0.4 nM (2.5-fold). The second is the more potent here.

`COc1cnc2c(-c3nc4cc(F)c(OC[C@@H](C)OC(=O)Nc5cnc(O[C@H](C)CO)nc5)cc4s3)cc(C)cc2n1` [Example 553, (R)-1-((5-fluoro-2-(2-methoxy-7-methylquinoxalin-5-yl)benzo[d]thiazol-6-yl)oxy)propan-2-yl (2-(((R)-1-hydroxypropan-2-yl)oxy)pyrimidin-5-yl)carbamate] and `COc1cnc2c(-c3nc4cc(F)c(OC[C@@H](C)OC(=O)Nc5cnc(O[C@@H](C)CO)nc5)cc4s3)cc(C)cc2n1` [Example 558, (R)-1-((5-fluoro-2-(2-methoxy-7-methylquinoxalin-5-yl)benzo[d]thiazol-6-yl)oxy)propan-2-yl (2-(((S)-1-hydroxypropan-2-yl)oxy)pyrimidin-5-yl)carbamate] are within 1.5-fold of each other in IC50: 1.2 nM for the first, 1.5 nM for the second.

First: COc1cnc2c(-c3nc4cc(F)c(O[C@@H](C)[C@@H](C)OC(=O)Nc5cnc(O[C@H](C)CO)nc5)cc4s3)cc(C)cc2n1 [Example 554, (2R,3S)-3-((5-fluoro-2-(2-methoxy-7-methylquinoxalin-5-yl)benzo[d]thiazol-6-yl)oxy)butan-2-yl (2-(((R)-1-hydroxypropan-2-yl)oxy)pyrimidin-5-yl)carbamate]
Second: COc1cnc2c(-c3nc4cc(F)c(O[C@@H](C)[C@@H](C)OC(=O)Nc5cnc(O[C@@H](C)CO)nc5)cc4s3)cc(C)cc2n1 [Example 560, (2R,3S)-3-((5-fluoro-2-(2-methoxy-7-methylquinoxalin-5-yl)benzo[d]thiazol-6-yl)oxy)butan-2-yl (2-(((S)-1-hydroxypropan-2-yl)oxy)pyrimidin-5-yl)carbamate]
The IC50 of the first is 2-fold lower: 0.7 nM for the first, 1.4 nM for the second.

First: COc1cnc2c(-c3nc4cc(F)c(OC[C@@H](C)OC(=O)Nc5cnc(OCCO)nc5)cc4s3)cc(C)cc2n1 [Example 555, (R)-1-((5-fluoro-2-(2-methoxy-7-methylquinoxalin-5-yl)benzo[d]thiazol-6-yl)oxy)propan-2-yl (2-(2-hydroxyethoxy)pyrimidin-5-yl)carbamate]
Second: COc1cnc2c(-c3nc4cc(F)c(OC[C@@H](C)OC(=O)Nc5cnc(CCO)nc5)cc4s3)cc(C)cc2n1 [Example 564, (R)-1-((5-fluoro-2-(2-methoxy-7-methylquinoxalin-5-yl)benzo[d]thiazol-6-yl)oxy)propan-2-yl (2-(2-hydroxyethyl)pyrimidin-5-yl)carbamate]
The IC50 of the first is 3.4-fold lower: 1.1 nM for the first, 3.7 nM for the second. The first is the more potent here.

`COc1cnc2c(-c3nc4cc(F)c(OC[C@@H](C)OC(=O)Nc5ccc(CC(C)(C)O)nc5)cc4s3)cc(C)cc2n1` [Example 557, (R)-1-((5-fluoro-2-(2-methoxy-7-methylquinoxalin-5-yl)benzo[d]thiazol-6-yl)oxy)propan-2-yl (6-(2-hydroxy-2-methylpropyl)pyridin-3-yl)carbamate] and `COc1cnc2c(-c3nc4cc(F)c(O[C@@H](C)[C@@H](C)OC(=O)Nc5ccc(CC(C)(C)O)nc5)cc4s3)cc(C)cc2n1` [Example 559, (2R,3S)-3-((5-fluoro-2-(2-methoxy-7-methylquinoxalin-5-yl)benzo[d]thiazol-6-yl)oxy)butan-2-yl (6-(2-hydroxy-2-methylpropyl)pyridin-3-yl)carbamate] are within 1.5-fold of each other in IC50: 0.7 nM for the first, 0.9 nM for the second.

First: COc1cnc2c(-c3nc4cc(F)c(O[C@@H](C)[C@@H](C)OC(=O)Nc5ccnc(OCC(C)(C)O)c5)cc4s3)cc(C)cc2n1 [Example 562, (2R,3S)-3-((5-fluoro-2-(2-methoxy-7-methylquinoxalin-5-yl)benzo[d]thiazol-6-yl)oxy)butan-2-yl (2-(2-hydroxy-2-methylpropoxy)pyridin-4-yl)carbamate]
Second: COc1cnc2c(-c3nc4cc(F)c(O[C@@H](C)[C@@H](C)OC(=O)Nc5ccnc(OCCC(C)(C)O)c5)cc4s3)cc(C)cc2n1 [Example 563, (2R,3S)-3-((5-fluoro-2-(2-methoxy-7-methylquinoxalin-5-yl)benzo[d]thiazol-6-yl)oxy)butan-2-yl (2-(3-hydroxy-3-methylbutoxy)pyridin-4-yl)carbamate]
The IC50 of the first is 1.7-fold lower: 1.6 nM for the first, 2.8 nM for the second.

`COc1cnc2c(-c3nc4cc(F)c(O[C@@H](C)[C@@H](C)OC(=O)Nc5cnc(CCO)nc5)cc4s3)cc(C)cc2n1` [Example 565, (2R,3S)-3-((5-fluoro-2-(2-methoxy-7-methylquinoxalin-5-yl)benzo[d]thiazol-6-yl)oxy)butan-2-yl (2-(2-hydroxyethyl)pyrimidin-5-yl)carbamate] was tested, and the IC50 was 3 nM.

Reference: patent US12060347B2 (BRISTOL-MYERS SQUIBB COMPANY, priority 2016, dated 2024)
